Laboratory results: ChEMBL document CHEMBL1136879, “Studies on novel 2-imidazolidinones and tetrahydropyrimidin-2(1H)-ones as potential TACE inhibitors: design, synthesis, molecular modeling, and preliminary biological evaluation” (Bioorg Med Chem, 2009)

These compounds were tested against Disintegrin and metalloproteinase domain-containing protein 17 (Homo sapiens) (UniProt P78536) (assay: Inhibition of TACE in human THP1 cell lysate at 0.1 uM/L by spectrofluorimetric ELISA relative to control). Conditions: THP-1.
Assay type: cell-free

Sequence of Disintegrin and metalloproteinase domain-containing protein 17 (Homo sapiens) (P78536 whole entry, the tested form may be a part): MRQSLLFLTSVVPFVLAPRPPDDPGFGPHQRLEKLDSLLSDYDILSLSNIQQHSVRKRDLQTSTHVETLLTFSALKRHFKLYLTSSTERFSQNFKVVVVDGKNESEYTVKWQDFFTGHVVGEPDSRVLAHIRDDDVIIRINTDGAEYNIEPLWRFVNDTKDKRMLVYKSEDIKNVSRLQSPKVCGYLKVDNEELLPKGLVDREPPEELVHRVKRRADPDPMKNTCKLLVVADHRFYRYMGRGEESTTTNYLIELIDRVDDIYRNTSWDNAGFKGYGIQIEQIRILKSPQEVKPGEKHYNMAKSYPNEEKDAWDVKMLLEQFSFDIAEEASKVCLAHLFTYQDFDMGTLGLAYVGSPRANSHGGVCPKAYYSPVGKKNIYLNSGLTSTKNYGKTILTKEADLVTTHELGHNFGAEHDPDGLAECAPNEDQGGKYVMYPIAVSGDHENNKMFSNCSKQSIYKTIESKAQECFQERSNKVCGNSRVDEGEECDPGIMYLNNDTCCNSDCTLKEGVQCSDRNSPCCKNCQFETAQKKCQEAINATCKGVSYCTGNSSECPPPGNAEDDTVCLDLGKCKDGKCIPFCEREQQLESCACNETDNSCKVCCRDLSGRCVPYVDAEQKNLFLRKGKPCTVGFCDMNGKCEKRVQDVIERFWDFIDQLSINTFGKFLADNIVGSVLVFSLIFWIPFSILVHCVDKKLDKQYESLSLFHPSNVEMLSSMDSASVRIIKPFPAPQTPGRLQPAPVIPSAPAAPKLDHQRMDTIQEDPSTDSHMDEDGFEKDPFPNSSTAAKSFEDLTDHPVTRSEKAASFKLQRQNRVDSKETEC

| SMILES | inhibition [%] |
| --- | --- |
| CC(C)Cc1cc(COc2ccc(N3CCN(C(C)C(=O)NO)C3=O)cc2)c2ccccc2n1 (centres undefined) | 60 |
| CC(C)C[C@H](CC(=O)NO)C(=O)N[C@@H](C)C(=O)N(c1cccc2ccccc12)[C@@H](C)C(=O)NCCN | 28 |
| CC(C(=O)NO)N1CCN(c2cccc(OCc3ccc([N+](=O)[O-])cc3)c2)C1=O (centres undefined) | 40 |
| COc1ccc(COc2ccc(N3CCN(C(C)C(=O)NO)C3=O)cc2)cc1 (centres undefined) | 38 |
| CCc1cc(COc2ccc(N3CCN(C(C)C(=O)NO)C3=O)cc2)c2ccccc2n1 (centres undefined) | 62 |
| COc1ccc(CSc2ccc(N3CCN(C(C)C(=O)O)C3=O)cc2)cc1 (centres undefined) | 40 |
| CC(C(=O)O)N1CCCN(c2ccc(OCc3ccccn3)cc2)C1=O (centres undefined) | 35 |
| CC(C(=O)NO)N1CCN(c2ccc(OCc3cccc4ccccc34)cc2)C1=O (centres undefined) | 36 |
| CC(C)Cc1cc(COc2ccc(N3CCN(C(C)C(=O)O)C3=O)cc2)c2ccccc2n1 (centres undefined) | 47 |
| CC(C(=O)NO)N1CCN(c2cccc(OCc3ccccc3)c2)C1=O (centres undefined) | 39 |
| CCc1cc(COc2ccc(N3CCCN(C(C)C(=O)NO)C3=O)cc2)c2ccccc2n1 (centres undefined) | 34 |
| CC(C)Cc1cc(COc2ccc(N3CCCN(C(C)C(=O)O)C3=O)cc2)c2ccccc2n1 (centres undefined) | 20 |
| CC(C(=O)NO)N1CCN(c2ccc(OCc3ccccn3)cc2)C1=O (centres undefined) | 50 |
| CC(C(=O)O)N1CCCN(c2ccc(OCc3cc(-c4ccccc4)nc4ccccc34)cc2)C1=O (centres undefined) | 31 |
| CC(C(=O)NO)N1CCCN(c2ccc(OCc3cccc4ccccc34)cc2)C1=O (centres undefined) | 40 |
| COc1ccc(COc2ccc(N3CCCN(C(C)C(=O)NO)C3=O)cc2)cc1 (centres undefined) | 18 |
| CC(C(=O)O)N1CCN(c2ccc(OCc3ccccn3)cc2)C1=O (centres undefined) | 28 |
| CC(C(=O)O)N1CCCN(c2ccc(OCc3ccc(-c4ccccc4)cc3)cc2)C1=O (centres undefined) | 28 |
| CCc1cc(COc2ccc(N3CCN(C(C)C(=O)O)C3=O)cc2)c2ccccc2n1 (centres undefined) | 49 |
| CC(C(=O)NO)N1CCCN(c2ccc(OCc3ccccc3)cc2)C1=O (centres undefined) | 28 |
| CC(C(=O)O)N1CCN(c2ccc(OCc3cc(-c4ccccc4)nc4ccccc34)cc2)C1=O (centres undefined) | 30 |
| CC(C(=O)NO)N1CCCN(c2ccc(OCc3ccccn3)cc2)C1=O (centres undefined) | 37 |
| COc1ccc(CSc2ccc(N3CCN(C(C)C(=O)NO)C3=O)cc2)cc1 (centres undefined) | 42 |
| CC(C(=O)O)N1CCN(c2ccc(OCc3ccc(-c4ccccc4)cc3)cc2)C1=O (centres undefined) | 30 |
